Measured values published in article PMC6934184, “Selective DNA-PKcs inhibition extends the therapeutic index of localized radiotherapy and chemotherapy” (The Journal of Clinical Investigation, 2019).

Molecular target: T1, MLCK (MLCK2) (Homo sapiens, UniProt Q32MK0)
T1 construct: purchased Thermo Fisher Scientific (Life Technologies) SelectScreen
Assay: SelectScreen LanthaScreen
Format: binding
Conditions: read-out: % displacement
Method in brief: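 NU5455 was profiled across the SelectScreen Broad panel of kinase activity and binding assays. Z'LYTE reactions such as CSF1R ran at apparent Km ATP, while the Adapta CAMK1 assay used ATP listed as 10. Values are given as percent.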

T1 sequence (Q32MK0 whole entry): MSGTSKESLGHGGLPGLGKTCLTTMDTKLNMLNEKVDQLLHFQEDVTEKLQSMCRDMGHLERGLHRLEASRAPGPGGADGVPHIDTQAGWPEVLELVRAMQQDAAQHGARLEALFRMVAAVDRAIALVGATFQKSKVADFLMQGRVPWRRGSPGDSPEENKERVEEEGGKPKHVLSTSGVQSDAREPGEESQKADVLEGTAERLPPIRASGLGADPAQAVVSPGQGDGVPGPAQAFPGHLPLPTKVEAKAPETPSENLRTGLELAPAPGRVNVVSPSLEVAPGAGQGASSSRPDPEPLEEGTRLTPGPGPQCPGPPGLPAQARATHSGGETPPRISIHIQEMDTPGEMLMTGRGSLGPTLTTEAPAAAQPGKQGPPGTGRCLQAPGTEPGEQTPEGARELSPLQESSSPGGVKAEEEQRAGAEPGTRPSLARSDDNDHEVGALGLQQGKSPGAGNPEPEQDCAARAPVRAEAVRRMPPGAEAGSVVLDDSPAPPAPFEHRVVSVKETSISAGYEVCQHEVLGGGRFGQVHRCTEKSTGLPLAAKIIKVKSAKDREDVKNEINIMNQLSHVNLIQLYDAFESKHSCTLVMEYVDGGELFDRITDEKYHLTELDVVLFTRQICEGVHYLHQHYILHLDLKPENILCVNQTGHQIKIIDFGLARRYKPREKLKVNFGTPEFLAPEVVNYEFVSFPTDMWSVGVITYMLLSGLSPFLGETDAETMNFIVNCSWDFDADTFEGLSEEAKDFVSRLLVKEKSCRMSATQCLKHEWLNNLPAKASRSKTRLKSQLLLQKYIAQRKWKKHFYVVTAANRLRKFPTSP

`CN(C(=O)CN1CCOCC1)c1ccc2sc3c(-c4cccc5c(=O)cc(N6CC7CCC(C6)O7)oc45)cccc3c2c1` [NU5455] gave an inhibition at 1 µM of 1.5%.
